Assay results as given in BindingDB's records for doi:10.1021/acsmedchemlett.8b00549 (Stellenbosch University, 2019).

What was measured:
[1] = Inhibition of HIV1 reverse transcriptase Y188H mutant in HIV1 infected HEK293T cells harboring luciferase gene assessed as reduction in viral infection after 48 hrs by Bright-Glo luciferase assay
[2] = Inhibition of HIV1 reverse transcriptase V106M mutant in HIV1 infected HEK293T cells harboring luciferase gene assessed as reduction in viral infection after 48 hrs by Bright-Glo luciferase assay
[3] = Inhibition of HIV1 reverse transcriptase K103N mutant in HIV1 infected HEK293T cells harboring luciferase gene assessed as reduction in viral infection after 48 hrs by Bright-Glo luciferase assay
[4] = Inhibition of HIV1 reverse transcriptase G190A mutant in HIV1 infected HEK293T cells harboring luciferase gene assessed as reduction in viral infection after 48 hrs by Bright-Glo luciferase assay
[5] = Inhibition of HIV1 reverse transcriptase K103N/Y181C double mutant in HIV1 infected HEK293T cells harboring luciferase gene assessed as reduction in viral infection after 48 hrs by Bright-Glo luciferase assay
[6] = Inhibition of HIV1 reverse transcriptase Y188C mutant in HIV1 infected HEK293T cells harboring luciferase gene assessed as reduction in viral infection after 48 hrs by Bright-Glo luciferase assay
[7] = Inhibition of wild-type HIV1 reverse transcriptase in HIV1 infected HEK293T cells harboring luciferase gene assessed as reduction in viral infection after 48 hrs by Bright-Glo luciferase assay
[8] = Inhibition of HIV1 reverse transcriptase Y181C mutant in HIV1 infected HEK293T cells harboring luciferase gene assessed as reduction in viral infection after 48 hrs by Bright-Glo luciferase assay

## CC1(C)OC(=O)Nc2cccc(Oc3cc(Cl)cc(C#N)c3)c21
[1]
  IC50: 1.15 µM
[2]
  IC50: 0.63 µM
[3]
  IC50: 0.798 µM
[4]
  IC50: 2.76 µM
[5]
  IC50: 0.894 µM
[6]
  IC50: 0.007 µM
[7]
  IC50: 0.021 µM
[8]
  IC50: 0.028 µM

## Cn1c(=O)[nH]c2cccc(Oc3cc(Cl)cc(C#N)c3)c21
[1]
  IC50: 0.074 µM
[2]
  IC50: 0.494 µM
[3]
  IC50: 0.126 µM
[4]
  IC50: 0.107 µM
[6]
  IC50: 0.236 µM
[7]
  IC50: 0.029 µM
[8]
  IC50: 0.055 µM

## CCC(c1ccccc1)n1c(=O)[nH]c2ccc(Cl)cc21 (stereo unspecified)
[3]
  IC50: > 0.2 µM
[7]
  IC50: 0.036 µM
[8]
  IC50: > 0.2 µM

## CCn1c(=O)[nH]c2cccc(Oc3ccnc(C#N)c3)c21
[7]
  IC50: 13.3 µM

## CCCn1c(=O)[nH]c2cccc(Oc3cc(Cl)cc(C#N)c3)c21
[7]
  IC50: 0.05 µM

## CCOC(=O)c1[nH]c2ccc(Cl)cc2c1C(SC)c1cc(C)cc(C)c1 (stereo unspecified)
[7]
  IC50: 0.06 µM

## CCOC(=O)c1[nH]c2ccc(Cl)cc2c1C(OC)c1cc(C)cc(C)c1 (stereo unspecified)
[7]
  IC50: 0.034 µM

## CCn1c(=O)[nH]c2cccc(Oc3cc(C#N)ccn3)c21
[7]
  IC50: 1.36 µM

## CCn1c(=O)[nH]c2cccc(Oc3cc(C#N)cc(C#N)c3)c21
[7]
  IC50: 0.063 µM

## CCn1c(=O)[nH]c2cccc(Oc3cc(C#N)cc(/C=C/C#N)c3)c21
[1]
  IC50: 0.468 µM
[2]
  IC50: 0.926 µM
[3]
  IC50: 0.166 µM
[4]
  IC50: 0.377 µM
[5]
  IC50: 0.051 µM
[6]
  IC50: 0.014 µM
[7]
  IC50: 0.049 µM
[8]
  IC50: 0.073 µM

## CCOC(=O)c1[nH]c2ccc(Cl)cc2c1C(SC)c1ccccc1 (stereo unspecified)
[7]
  IC50: 0.039 µM

## CCOC(=O)c1[nH]c2ccc(Cl)cc2c1C(OC)c1ccccc1 (stereo unspecified)
[7]
  IC50: 0.016 µM

## CCn1c(=O)[nH]c2cccc(Oc3cc(Cl)cc(C#N)c3)c21
[1]
  IC50: 0.415 µM
[2]
  IC50: 0.293 µM
[3]
  IC50: 0.111 µM
[4]
  IC50: 0.126 µM
[5]
  IC50: 0.052 µM
[6]
  IC50: 0.007 µM
[7]
  IC50: 0.026 µM
[8]
  IC50: 0.018 µM

## CCn1c(=O)[nH]c2cccc(Oc3ccnc(Cl)c3)c21
[7]
  IC50: > 44.1 µM

## CCn1c(=O)[nH]c2cccc(Oc3cccc4ccccc34)c21
[7]
  IC50: 2.27 µM

## CCn1c(=O)[nH]c2cccc(Oc3ccccc3)c21
[7]
  IC50: 3.88 µM

## CCn1c(=O)[nH]c2cccc(Oc3cc(C)cc(C)c3)c21
[7]
  IC50: 0.303 µM
